Laboratory results published in patent EP4470537A1, “COMPOUND FOR USE IN TREATING FIBRODYSPLASIA OSSIFICANS PROGRESSIVA (FOP)” (Queen's University At Kingston, priority 2023, dated 2024).

What was measured:
RAR = RAR transcriptional activation assay (RARE-luc MCF-7 cells); assay type: cell-based; conditions: 0.1 nM to 10 µM, 24 hours of treatment
Description: This retinoid transcriptional activity assay measures the ability of a test compound to induce expression of a RA-sensitive reporter construct. This assay utilizes MCF-7 cells stably transduced with a gene construct comprising 4 tandem RA-response elements linked to a promoter driving transcriptional expression of the firefly luciferase encoding mRNA (RARE-luc). This construct serves as a sensitive reporter of retinoid-like activity.
RARE-luc transduced MCF-7 cells were maintained in a RPMI-1640 medium containing 10% FBS. Cells were grown in 96-well plates, and treated with the test compound diluted in DMSO in duplicate at 0.1 nM, 1 nM, 10 nM, 100 nM, 1 µM and 10 µM final concentrations. As a positive control for reporter activation, cells were also treated with RA diluted in DMSO at the same concentrations. DMSO treatment alone served as a negative control. After 24 hours of treatment, cells were harvested lysis buffer (Molecular Devices, San Jose, USA) and luciferase activity in cell lysates were read using a luminometer.

growth plates = test: Long bone growth and growth plate toxicity in juvenile FVB mice; conditions: mouse, in vivo
Description: For both palovarotene and compound 1 efficacy and toxicity were correlated to the pharmacokinetic parameters AUC (area under the curve), Cmax (maximum concentration detected following compound administration), and duration above EC50/IC50.This illustrated that efficacy was best predicted by duration above the EC50/IC50 (effective concentration for 50% response (in the case of palovarotene), or for 50% inhibition (in the case of compound 1)), whereas toxicity was best predicted by Cmax. […] For palovarotene, efficacy data from Example 7 and toxicity data from Example 8 above were compiled with mined data from the following publications: • Lindborg et al (2018). "Cartilage-derived retinoic acid-sensitive protein (CD-RAP): A stage-specific biomarker of heterotopic endochondral ossification (HEO) in fibrodysplasia ossificans progressiva (FOP)." Bone 109: 153-157. • Chakkalakal, S. A., et al. (2016). "Palovarotene Inhibits Heterotopic Ossification and Maintains Limb Mobility and Growth in Mice With the Human ACVR1(R206H) Fibrodysplasia Ossificans Progressiva (FOP) Mutation." J Bone Miner Res 31(9): 1666-1675. • Inubushi, T., et al. (2018). "Palovarotene Inhibits Osteochondroma Formation in a Mouse Model of Multiple Hereditary Exostoses." J Bone Miner Res 33(4): 658-666. • Lees-Shepard, J. B., et al. (2018). […]

heterotopic ossification = test: Surgical mouse model of heterotopic ossification (rhBMP2 collagen disk implant); assay type: in vivo
Description: Disks were impregnated with 1µg total of recombinant human BMP-2 (GenScript, Piscataway, NJ, USA, catalog #Z02913, lot #P50031712) on the day of surgery (5µl of 200ng/µL BMP-2, reconstituted in 20mM acetic acid solution). The rhBMP2-soaked collagen disk was surgically implanted into a small pocket made in the left gastrocnemius muscle of a 6-8 week-old male CD-1 mouse.
At the study endpoint (Day 14: 16-30 hours after final compound treatment) left hindlimbs were removed and submitted to micro-CT (micro-computed tomography) imaging.
CT images were acquired using a VECTor^4CT pre-clinical scanner (MILabs B.V., Utrecht, Netherlands) equipped with a cone beam X-ray CT system. Scans were carried out with an acceleration voltage of 50 kVp and an X-ray tube current of 430 µA in accurate focus mode to obtain 3600 projections over a 360° scan. […] CT images were consequently processed using MILabs reconstruction software implementing a voxel size of 20 µm and a Hann projection filter of 25 µm to generate 3-dimensional CT images. For quantification, CT images were converted to DICOM® files using PMOD 3.9 software (PMOD Technologies Ltd., Zurich, Switzerland) for rendering using RadiAnt DICOM Viewer 4.2 software (Medixant, Poznań, Poland). The region-of-interest for all hindlimbs, reconstructed from DICOM files, was defined by outlining sites of ectopic ossification. Analysis of total ectopic bone volume was conducted via automated processes using the AnalyzePro software with the Bone Microarchitecture Analysis (BMA) add-on (AnalyzeDirect, Overland Park, Kansas).

ectopic bone formation = test: Genetic model of FOP (pinch injury, Acvr1 cR206H/+;Pdgfra-Cre+ mice); assay type: in vivo, mouse; conditions: for Mean ectopic bone volume D14 / percent change from vehicle (D14): day 14; for Mean ectopic bone volume D22 / percent change from vehicle (D22): day 22
Description: Acvr1^(cR206H/+) mice were obtained from the International Fibrodysplasia Ossificans Progressiva Association (IFOPA, North Kansas City, MO, USA). These animals harbour a Cre recombinase-inducible Acvr1 transgenic allele, which causes a switch from wild-type mouse ACVR1 protein expression to that of a chimeric mouse/human protein containing the R206H mutation seen in >95% of FOP patients. These animals were intercrossed with Pdgfra-Cre expressing mice (C57BL/6-Tg(PDGFRA-cre)1Clc/J mice, available through The Jackson Laboratory, Bar Harbor, ME, USA) which activates Cre recombination in fibro-adipogenic precursors, currently believed to be the cells of origin for FOP (Lees-Shepard, J.B., et al (2018) Nat Commun 9, 471.). Resulting study animals (ACVR1^(R206H/+);Pdgfra-Cre+) are susceptible to injury-induced ectopic bone formation. These animals were subjected to a bilateral gastrocnemius pinch procedure under anaesthesia, whereby a Halsted-mosquito hemostat (product#13008-12, Fine Science Tools Inc., North Vancouver, BC, Canada) is used to compress the gastrocnemius muscle, at its widest part, to approximately 2mm for 5s, and then released. This injury elicits robust ectopic bone formation within 10-14 days (for description of procedure see, Lyu, H., et al. (2021). Biomedicines 9(6).). Animals began treatment with various doses of compound 1 (0.5 mg/kg BID, 1 mg/kg BID, 2 mg/kg BID, 4 mg/kg BID, 7.5 mg/kg BID and 10 mg/kg BID or 2 mg/kg QD and 10 mg/kg QD) or palovarotene (1.76 mg/kg QD or 0.88 mg/kg QD) or corn oil vehicle on the day following the procedure for 21 days. Micro-CT imaging was performed on day 14 (under anaesthesia) and at study termination (day 22), as outlined above in Example 7. Sites of ectopic bone formation in the area of the injury were volumetrically quantified using Class stratification in Imalytics Preclinical software (version 3.0.2.3, Gremse-IT GmbH, Aachen, Germany) from DICOM renderings. Using this model, the utility of compound 1 in inhibiting bone formation in a genetic mouse model of FOP was illustrated (see Figure 11 and Table 3 below). […]

Compound: CC(C)(C)c1cccc(-c2cc3cc(/C=C/C(=O)O)ccc3[nH]2)c1 [compound 1, (E)-3-(2-(3-(tert-butyl)phenyl)-1H-indol-5-yl)acrylic acid]
- luciferase activity (RAR): did not induce luciferase activity significantly
- disturbances to the growth of long bones and microarchitecture of the growth plates (growth plates): not observed
- ectopic bone formation (heterotopic ossification; result in words, 2 to 18 mg/kg QD or BID, 14 days, micro-CT): dose-dependent decrease in ectopic bone formation from vehicle
- Mean ectopic bone volume D14 (ectopic bone formation; 0.5mg/kg BID): 5.31 ± 6.65 mm^3
- percent change from vehicle (D14) (ectopic bone formation; 0.5mg/kg BID): -51.9%
- Mean ectopic bone volume D22 (ectopic bone formation; 0.5mg/kg BID): 4.01 ± 7.71 mm^3
- percent change from vehicle (D22) (ectopic bone formation; 0.5mg/kg BID): -63.4%
- Mean ectopic bone volume D14 (ectopic bone formation; 1mg/kg BID): 4.88 ± 6.79 mm^3
- percent change from vehicle (D14) (ectopic bone formation; 1mg/kg BID): -55.8%
- Mean ectopic bone volume D22 (ectopic bone formation; 1mg/kg BID): 5.50 ± 10.67 mm^3
- percent change from vehicle (D22) (ectopic bone formation; 1mg/kg BID): -49.8%
- Mean ectopic bone volume D14 (ectopic bone formation; 2mg/kg BID): 4.62 ± 5.80 mm^3
- percent change from vehicle (D14) (ectopic bone formation; 2mg/kg BID): -58.1%
- Mean ectopic bone volume D22 (ectopic bone formation; 2mg/kg BID): 5.08 ± 7.90 mm^3
- percent change from vehicle (D22) (ectopic bone formation; 2mg/kg BID): -53.6%
- Mean ectopic bone volume D14 (ectopic bone formation; 2mg/kg QD): 3.61 ± 4.98 mm^3
- percent change from vehicle (D14) (ectopic bone formation; 2mg/kg QD): -67.3%
- Mean ectopic bone volume D22 (ectopic bone formation; 2mg/kg QD): 1.77 ± 1.73 mm^3
- percent change from vehicle (D22) (ectopic bone formation; 2mg/kg QD): -83.8%
- Mean ectopic bone volume D14 (ectopic bone formation; 4mg/kg BID): 1.54 ± 2.85 mm^3
- percent change from vehicle (D14) (ectopic bone formation; 4mg/kg BID): -86.1%
- Mean ectopic bone volume D22 (ectopic bone formation; 4mg/kg BID): 2.65 ± 6.33 mm^3
- percent change from vehicle (D22) (ectopic bone formation; 4mg/kg BID): -75.8%
- Mean ectopic bone volume D14 (ectopic bone formation; 7.5mg/kg BID): 0.26 ± 0.42 mm^3
- percent change from vehicle (D14) (ectopic bone formation; 7.5mg/kg BID): -97.6%
- Mean ectopic bone volume D22 (ectopic bone formation; 7.5mg/kg BID): 0.06 ± 0.16 mm^3
- percent change from vehicle (D14) (ectopic bone formation; 10mg/kg BID): -88.4%
- percent change from vehicle (D22) (ectopic bone formation; 10mg/kg BID): -87.2%
- Mean ectopic bone volume D14 (ectopic bone formation; 10mg/kg QD): 1.56 ± 3.61 mm^3
- percent change from vehicle (D14) (ectopic bone formation; 10mg/kg QD): -85.9%
- Mean ectopic bone volume D22 (ectopic bone formation; 10mg/kg QD): 2.13 ± 6.10 mm^3
- percent change from vehicle (D22) (ectopic bone formation; 10mg/kg QD): -80.6%
- efficacy in inhibiting bone formation (ectopic bone formation; result in words, comparison with palovarotene): at least as efficacious as clinically relevant doses of palovarotene

Compound: CC1(C)CCC(C)(C)c2cc(Cn3cccn3)c(/C=C/c3ccc(C(=O)O)cc3)cc21 [palovarotene, reference compound]
- percent change in HO volume from vehicle mean (heterotopic ossification; 0.88mg/kg, 13 days, Day 14): +2.5%
- Mean ectopic bone volume D14 (ectopic bone formation; 0.88mg/kg QD): 2.42 ± 3.93 mm^3
- percent change from vehicle (D14) (ectopic bone formation; 0.88mg/kg QD): -78.0%
- Mean ectopic bone volume D22 (ectopic bone formation; 0.88mg/kg QD): 0.75 ± 0.97 mm^3
- percent change from vehicle (D22) (ectopic bone formation; 0.88mg/kg QD): -93.2%
- Mean ectopic bone volume D14 (ectopic bone formation; 1.76mg/kg QD): 1.54 ± 2.48 mm^3
- percent change from vehicle (D14) (ectopic bone formation; 1.76mg/kg QD): -86.1%
- Mean ectopic bone volume D22 (ectopic bone formation; 1.76mg/kg QD): 0.58 ± 0.96 mm^3
- percent change from vehicle (D22) (ectopic bone formation; 1.76mg/kg QD): -94.7%
